Each structure is given as a SMILES string.

This is an account of results in patent US20070037788A1, “Tricyclic steroid hormone nuclear receptor modulators” (Eli Lilly and Company, priority 2003, published 2007).

The target in this experiment is T1, human GR (glucocorticoid receptor) (Homo sapiens, UniProt P04150).
T1 construct: expressed in transfected cells; host or cells: 293 cells
T1 sequence (P04150 1-777): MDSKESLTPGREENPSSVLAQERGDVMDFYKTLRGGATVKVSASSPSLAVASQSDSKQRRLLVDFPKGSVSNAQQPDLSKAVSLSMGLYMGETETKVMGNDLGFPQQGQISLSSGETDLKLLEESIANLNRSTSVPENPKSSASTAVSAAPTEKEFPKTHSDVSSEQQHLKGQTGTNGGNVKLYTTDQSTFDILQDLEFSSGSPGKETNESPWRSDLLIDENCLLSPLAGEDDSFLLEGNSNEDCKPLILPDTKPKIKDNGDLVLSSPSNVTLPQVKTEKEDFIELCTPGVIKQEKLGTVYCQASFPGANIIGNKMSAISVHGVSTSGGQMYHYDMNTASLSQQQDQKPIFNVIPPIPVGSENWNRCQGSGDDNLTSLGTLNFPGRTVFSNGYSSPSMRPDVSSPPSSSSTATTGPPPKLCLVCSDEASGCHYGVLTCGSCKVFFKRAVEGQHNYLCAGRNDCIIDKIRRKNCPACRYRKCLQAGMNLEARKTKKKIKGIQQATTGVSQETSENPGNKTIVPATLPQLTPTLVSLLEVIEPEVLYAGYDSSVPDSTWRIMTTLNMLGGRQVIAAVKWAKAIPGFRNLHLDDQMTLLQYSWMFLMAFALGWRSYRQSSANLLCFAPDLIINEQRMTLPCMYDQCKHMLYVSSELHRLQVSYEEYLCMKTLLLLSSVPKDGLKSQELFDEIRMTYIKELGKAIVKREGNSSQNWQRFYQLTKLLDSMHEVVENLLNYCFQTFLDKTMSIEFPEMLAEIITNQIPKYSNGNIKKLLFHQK
Description: Alternative Binding Assay Protocol (Method 2), GR. The conditions noted are these: 293-GR lysate, 3H-dexamethasone. As for the experimental part: Cell lysates from 293 cells overexpressing human GR (glucocorticoid receptor), AR (androgen receptor), MR (mineralocorticoid receptor) or PR (progesterone receptor) are used for competition binding assays to determine Ki values for test compounds. Briefly, competition binding assays are run in a buffer containing 20 mM Hepes, pH 7.6, 0.2 mM EDTA, 75 mM NaCl, 1.5 mM MgCl2, 20% glycerol, 20 mM sodium molybdate, 0.2 mM DTT, 20 ug/ml aprotinin and 20 ug/ml leupeptin, using either 0.3 nM ^3H-dexamethasone for GR binding, 0.36 nM ^3H-methyltrienolone for AR binding, 0.25 nM ^3H-aldosterone for MR binding, or 0.29 nM ^3H-methyltrienolone for PR binding, and either 20 ug 293-GR lysate, 22 ug 293-AR lysate, 20 ug 293-MR lysate or 40 ug 293-PR lysate per well. Competing compounds are added at various concentrations in half-log increments. Non-specific binding is determined in the presence of 500 nM dexamethasone for GR binding, 500 nM aldosterone for MR binding, or 500 nM methyltrienolone for AR and PR binding. The binding reaction (140 μl) is incubated for overnight at 4° C., then 70 μl of cold charcoal-dextran buffer (containing per 50 ml of assay buffer, 0.75 g of charcoal and 0.25 g of dextran) is added to each reaction. Plates are mixed 8 minutes on an orbital shaker at 4° C. Plates are then centrifuged at 3,000 rpm at 4° C. for 10 minutes. An aliquot of 120 μl of the mix is transferred to another 96-well plate and 175 μl of Wallac Optiphase “Hisafe 3” scintillation fluid is added to each well. Plates are sealed and shaken vigorously on an orbital shaker. After an incubation of 2 hrs, plates are read in a Wallac Microbeta counter. The data is used to calculate an IC50 and % Inhibition at 10 μM. The Kd for ^3H-dexamethasone for GR binding, ^3H-methyltrienolone for AR binding, ^3H-aldosterone for MR binding, or ^3H-methyltrienolone for PR binding, is determined by saturation binding. The IC50 values for compounds are converted to Ki using Cheng-Prusoff equation and the Kd determined by saturation binding assay.

Compound `CCN1CC[C@@H](n2c(=O)[nH]c3cc(/C=C4/c5ccc(F)cc5OCc5c(F)cccc54)ccc32)C1` [Example 46] had a Ki of less than 1 µM.
